{"source": "patent US11638427B2", "about": "“Methods and compositions for altering secondary metabolites in plants” (Impello Biosciences, Inc, priority 2020, dated 2023)", "key": {"[1]": {"tested_on": "Nectria pseudotrichia", "assay": "Mold growth on jasmonate-infused plates, mold 2 isolated from avocado", "assay_type": "cell-based", "conditions": "various concentrations in plates", "experimental": "MDJ (TCI, CAS No.: 24851-98-7) and CJ were infused into potato dextrose agar (PDA, VWR Cat No.: 90003-494) petri dishes (100×15 mm VWR, Cat No: 25384-094) at concentrations ranging from 1 mM, 4.25 mM, and 10 mM. Each treatment was prepared using a technical grade stock solution of pure chemical (CJ or MDJ) diluted with TWEEN®-20 (VWR, CAS No.: […]). Culturable oyster mushroom and seedling mold served to create fungal mycelial plugs using a sterile 1 mL pipette tip (Eppendorf, Cat No.: 022491458) held upside down. The tips were used to make circle excisions (i.e., fungal plugs) from a mycelial mat grown on PDA with no biochemical infusions. Fungal pugs were then transferred to PDA infused with varying concentrations of CJ or MDJ, and control plates (no CJ or MDJ infusion) to monitor fungal growth at room temperature over time.\nBased on the above results in Cannabis spp., additional fungi from various crops was sampled and tested. Plates comprising various concentrations of MDJ or MJ were prepared as described above."}, "[2]": {"tested_on": "pineapples", "assay": "Fruit MDJ spray till drip, 2 weeks observation", "assay_type": "in vivo", "experimental": "For fruit MDJ dips, all fruits were purchased from a local market as certified organic on 4/13/2021. Before any treatments, all fruits were submerged in boiling water to melt off any non-natural waxy coating then dried with a washcloth. Once fruits were clean and dry, they were submerged in varying concentrations of methyl dihydrojasmonate solutions. Each solution was prepared from a 1M MDJ Tween 20 stock solution diluted with RO water. 500 ml of each solution was prepared and reused for the different fruits. Each fruit was submerged for 20 seconds and then left to dry on a paper towel. After the fruits were dry the paper towels were removed and fruits left on the lab bench at room temperature grouped by treatment but not touching and monitored for visual differences for 2 weeks. The pineapple was the only fruit that was not fully submerged but instead sprayed till drip with the varying concentration of MDJ/Tween 20 solution. Then left to dry and monitored the same as the other fruits.\nTreatments and Sample Sizes:\nControl, water—4 lemons, 2 oranges, 1 pineapple, 1 mango, 4 strawberries, 2 grapes (˜10 grapes/bundle), 2 oranges, 4 avocados […]\nQualitative observations like color changes, firmness, mold appearance were monitored and at the end of the two weeks all fruits were cut in half to record and further observations. Penetrometer readings were recorded in the last week of observations."}, "[3]": {"tested_on": "hemp varietal 'Bialobreszkie'", "assay": "MeJA foliar spray on fiber hemp, non-targeted metabolomic analysis (UPLC-MS, GC-MS)", "assay_type": "in vivo, Cannabis spp.", "experimental": "The efficacy and effectiveness of an eliciting composition and methods of use to alter secondary metabolite production were tested in a controlled environment with a commercial certified hemp varietal ‘Bialobreszkie’ (Bija Hemp, Denver, Colo., USA). […] This is in comparison with high metabolite-producing hemp varieties that typically yield greater than 10% by weight total cannabinoids.\nA non-targeted semi-quantitative metabolomic analysis was conducted to provide relative values for each detected analyte (i.e., compound) rather than absolute quantification, but with much greater detection limits than typical quantitative analysis provides. Additionally, the non-targeted nature allows essentially every compound that is present in the sample to be recorded and scored relative, providing a picture of the effect that each treatment has on the entire metabolome of the plant rather than only a snapshot of a few metabolites.\nOne hundred and forty-four (144) ‘Bialobreszkie’ variety hemp seeds were surface sterilized in a 2% NaOCI solution for 5 minutes and primed for 12 hours in a 1:30 aqueous solution of TRIBUS® Original (a commercial plant growth promoting bacterial consortia) contained in a 50 mL centrifuge tube and placed on an orbital shaker at 80 rpm, then hand sewn into two 72-cell trays filled with commercial coco coir (Canna Gardening, NL). Of the 144 seeds, 112 germinated well and were selected for use in the trial. After two weeks of development in seedling trays, all 112 plants were transplanted into 4” square plastic pots filled with pure coco coir media and watered-in with a 4-20-39 fertilizer supplemented with calcium nitrate, magnesium sulfate, and TRIBUS® beneficial bacteria at a standardized rate. At the time of transplant, all plants were transitioned into the flowering stage by manipulating the photoperiod to a 12-hour light/12-hour dark schedule per 24-hour day.\nPlants were transplanted successively without regard to their size or physical attributes on Apr. 20, 2019. The square pots were arranged in an […] grid on a 4′×8′ black plastic bench under two×1000-watt DE-HPS lamps (Gavita International BV). Each pot was numbered in numerical order, row by row. After all plants/pots were labelled, a research randomizer tool (randomizer.org) was used to randomly generate 8 groups with 14 unique numbers in each group, ranging from 1-112.\nTreatment groups differed only in the frequency and timing of applications. Chemical composition of the elicitor formula remained identical between all treatment groups and consisted of a 7.5 mM methyljasmonate (MeJA, technical grade, TCI America) active ingredient applied in an aqueous spray consisting of reverse-osmosis purified water, supplemented only with 0.1% v/v polysorbate-20 (TWEEN®-20, reagent grade, VWR) as an emulsifier to support oil-in-water stability. […] Treatment groups were defined as follows: […]\nAll plants receiving treatments were sprayed-to-drip with each application to ensure sufficient coverage. Treatments were made to all treatment plants during daylight hours but out of direct light. Plants were temporarily removed from the growing bench for treatment applications in order to prevent overspray of the treatment onto other plants in the experiment. In such instances, plants were returned to the growing bench immediately after the foliage had dried. Plants were cultivated under identical and typical growing conditions for 47 days, then whole plants were harvested successively and within one hour of each other, labeled with their corresponding plant number, and hung upside down in a well-ventilated room and allowed to dry. Loss of samples occurred either from plants dying during the experiment or insufficient flower set. All other plants in the experiment were approximately the same size and had similar numbers and size of flowers.\nEach of the 8 groups (7 treatment and 1 control) began the trial with 14 plants. 109 of 112 samples were run in the assay. […]"}, "[4]": {"conditions": "7.5 mM foliar spray, of the 597"}}}
{"smiles": "CCCCCC1C(=O)CCC1CC(=O)OC", "note": "(stereo not shown) [MDJ, methyl dihydrojasmonate]", "values": [{"measurement": "growth of mold isolated from avocado (mold 2)", "setting": "[1]", "result": "effective at preventing the growth"}, {"measurement": "crown appearance", "setting": "[2]; spray till drip 20 mM, control had the greenest crown, followed by 5 mM", "result": "most dried out crown"}, {"measurement": "mold at the base of the pineapple", "setting": "[2]; spray till drip, control, 5 mM and 20 mM groups, one pineapple per group", "result": "showed some mold"}]}
{"smiles": "CC/C=C\\C[C@H]1C(=O)CC[C@@H]1CC(=O)OC", "note": "[MeJA, Methyl Jasmonate]", "values": [{"measurement": "non-volatile hemp metabolome compared to the Control group (UPLC-MS)", "setting": "[3]; 7.5 mM applied every 7, 14 or 28 days, or only once 72 hours prior to harvest", "result": "substantially altered"}, {"measurement": "endogenous levels of jasmonate derivatives", "setting": "[3]; 7.5 mM exogenous foliar application", "result": "increase endogenous levels of numerous jasmonate derivaties"}, {"measurement": "significantly altered compounds not annotated", "setting": "[3]; [4]", "result": 466}, {"measurement": "significantly altered compounds putatively of superclass Alkaloids and derivatives", "setting": "[3]; [4]", "result": 5}, {"measurement": "significantly altered compounds putatively of superclass Benzenoids", "setting": "[3]; [4]", "result": 5}, {"measurement": "significantly altered compounds putatively of superclass Lipid or Lipid like", "setting": "[3]; [4]", "result": 78}, {"measurement": "significantly altered compounds putatively of superclass Organic acids and derivatives", "setting": "[3]; [4]", "result": 1}, {"measurement": "significantly altered compounds putatively of superclass Organic nitrogen compounds", "setting": "[3]; [4]", "result": 1}, {"measurement": "significantly altered compounds putatively of superclass Organic oxygen compounds", "setting": "[3]; [4]", "result": 9}, {"measurement": "significantly altered compounds putatively of superclass Organoheterocyclic compounds", "setting": "[3]; [4]", "result": 10}, {"measurement": "significantly altered compounds putatively of superclass Phenylpropanoids and polyketides", "setting": "[3]; [4]", "result": 14}, {"measurement": "non-volatile compounds significantly (p<0.05) altered by one or more treatment groups", "setting": "[3]; 7.5 mM foliar spray, of the 2,000+ compounds detected via UPLC-TOF", "result": 597}, {"measurement": "analytes with significantly altered relative abundance compared to the control group", "setting": "[3]; Treatment 1: 7.5 mM, one application every 7 days from first day of flowering", "result": 551}, {"measurement": "analytes with significantly altered relative abundance compared to the control group", "setting": "[3]; Treatment 2: 7.5 mM, one application every 14 days from first day of flowering", "result": 497}, {"measurement": "analytes with significantly altered relative abundance compared to the control group", "setting": "[3]; Treatment 3: 7.5 mM, one application every 28 days from first day of flowering", "result": 41}, {"measurement": "analytes with significantly altered relative abundance compared to the control group", "setting": "[3]; Treatment 4: 7.5 mM, only one application on the first day of flowering", "result": "did not significantly altered the relative abundance of any analytes"}, {"measurement": "analytes with significantly altered relative abundance compared to the control group", "setting": "[3]; Treatment 5: 7.5 mM, only one application on the 30th day of flowering", "result": 4}, {"measurement": "analytes with significantly altered relative abundance compared to the control group", "setting": "[3]; Treatment 6: 7.5 mM, only one application 72 hours prior to harvest", "result": 399}, {"measurement": "analytes with significantly altered relative abundance compared to the control group", "setting": "[3]; Treatment 7: 7.5 mM, only one application 24 hours prior to harvest", "result": 216}]}
